According to patent publication US10703748B2, “Diazanaphthalen-3-yl carboxamides and preparation and use thereof” (Samumed, LLC, priority 2017, dated 2020):

Assays:
DYRK1A kinase = DYRK1A kinase (Homo sapiens, UniProt Q13627); experiment: DYRK1A kinase activity (Ser/Thr 18 peptide Z-lyte FRET assay); assay type: biochemical; details: recombinant DYRK1A, 30 μM ATP, one hour at room temperature;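 note: kinase activity read as coumarin/fluorescein emission ratio after development step, with unphosphorylated and phosphorylated peptide forms setting 0% and 100% controls, values from dose-response curves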
IL-6 = IL-6 inhibition in LPS-stimulated human peripheral blood mononuclear cells (HTRF); details: for inhibition at 10 µM: read-out: percentage in parentheses after EC50 >10
[1] = test system: α-smooth muscle actin (aSMA) positive LL29 cells; experiment: Inhibition of the fibrotic process: αSMA staining in TGF-β1 treated LL29 fibroblasts from IPF patients; details: for inhibition at 10 µM: read-out: percentage in parentheses after EC50 >10
[2] = test system: Wnt-responsive Sp5-Luc reporter in SW480 colon carcinoma cells; experiment: Screening assay for Wnt activity (Sp5-Luc reporter gene assay); details: for inhibition at 10 µM: SW480, read-out: percent inhibition at 10 μM
GSK3β kinase = GSK3β kinase (Homo sapiens, UniProt P49841); experiment: GSK3β kinase activity (Ser/Thr 09 peptide Z-lyte FRET assay); assay type: biochemical; details: recombinant kinase, 46 μM ATP, one hour at room temperature; read-out: EC50
[3] = test system: SW480 colon carcinoma cells; experiment: Cell viability assay (CellTiter-Glo); details: for inhibition at 10 µM: SW480, read-out: percent inhibition at 10 μM

Sequence of GSK3β kinase (P49841 whole entry): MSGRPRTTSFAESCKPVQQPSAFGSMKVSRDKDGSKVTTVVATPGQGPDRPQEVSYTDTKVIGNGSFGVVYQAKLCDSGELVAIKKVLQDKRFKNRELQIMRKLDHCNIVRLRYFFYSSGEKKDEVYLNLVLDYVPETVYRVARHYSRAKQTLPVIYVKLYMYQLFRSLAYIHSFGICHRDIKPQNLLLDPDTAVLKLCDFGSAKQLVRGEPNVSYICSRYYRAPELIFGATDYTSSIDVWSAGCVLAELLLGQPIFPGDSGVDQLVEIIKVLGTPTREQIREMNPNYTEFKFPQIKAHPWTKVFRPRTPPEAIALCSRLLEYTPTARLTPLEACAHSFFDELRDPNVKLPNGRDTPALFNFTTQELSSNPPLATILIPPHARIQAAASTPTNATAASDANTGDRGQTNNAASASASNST

EC50 (DYRK1A kinase) [µM] | EC50 (IL-6; Homo sapiens, PBMC, 22 h) [µM] | EC50 ([2]; Homo sapiens, SW480) [µM] | EC50 (GSK3β kinase) [µM] | EC50 ([3]; Homo sapiens, SW480, 96 h) [µM] | SMILES | EC50 ([1]; Homo sapiens, Fibroblast, 96 h) [µM] | inhibition at 10 µM (IL-6; Homo sapiens, PBMC) [%] | inhibition at 10 µM ([2]; Homo sapiens) [%] | EC50 (IL-6; huPBMCs, LPS 50 ng/mL, 22 hours, curves starting from 10 μM) [µM] | percentage in parentheses after EC50 >10 (IL-6; huPBMCs, LPS, given beside >10 μM, meaning not given) [%] | EC50 ([1]; LL29 fibroblasts from IPF patients, TGF-β1 20 ng/mL, 4 days, curves from 10 μM to 0.94 nM) [µM] | percentage in parentheses after EC50 >10 ([1]; LL29 fibroblasts, TGF-β1, given beside >10 μM, meaning not given) [%] | EC50 ([2]; SW480 Sp5-Luc reporter cells, 36 to 48 hours) [µM] | EC50 ([3]; SW480 cells, four days, CellTiter-Glo) [µM] | percent inhibition at 10 μM ([3]; at 10 μM, given for EC50 of >10 μM, SW480 cell viability) [%] | inhibition at 10 µM ([1]; Homo sapiens, Fibroblast) [%] | inhibition at 10 µM ([3]; Homo sapiens) [%]
0.067 | 3.72 | 0.388 | 0.166 | 0.466 | Cn1cc(-c2ccc3cnc(NC(=O)c4coc(C5CCNCC5)n4)cc3n2)cn1 [Compound 241, N-(2-(1-Methyl-1H-pyrazol-4-yl)-1,6-naphthyridin-7-yl)-2-(piperidin-4-yl) oxazole-4-carboxamide] | 1.58 | – | – | – | – | – | – | – | – | – | – | –
0.06 | 3.62 | 0.268 | 6.85 | 0.541 | CN1CCC(c2nc(C(=O)Nc3cc4nc(-c5cnn(C)c5)ccc4cn3)co2)CC1 [Compound 242, N-(2-(1-Methyl-1H-pyrazol-4-yl)-1,6-naphthyridin-7-yl)-2-(1-methylpiperidin-4-yl)oxazole-4-carboxamide] | 1.42 | – | – | – | – | – | – | – | – | – | – | –
0.698 | > 10 | > 10 | 1.18 | 4.24 | CCN(CC)CC(=O)Nc1cc2nc(-c3cnn(C)c3CN3CCCCC3)ccc2cn1 [Compound 283, 2-(Diethylamino)-N-(2-(1-methyl-5-(piperidin-1-ylmethyl)-1H-pyrazol-4-yl)-1,6-naphthyridin-7-yl)acetamide] | 3.91 | 7.4 | 43.6 | – | – | – | – | – | – | – | – | –
– | – | – | – | – | Cn1cc(-c2ccc3cnc(NC(=O)C(C)(C)F)cc3n2)nn1 [Compound 333] | – | – | – | > 10 | 5.4 | > 10 | 25.2 | 0.504 | > 10 | 35.6 | – | –
9.99 | > 10 | > 10 | > 10 | > 10 | Cn1cc(-c2ccc3cnc(NC(=O)C4CCN(CC5(C(F)(F)F)CC5)CC4)cc3n2)nn1 [Compound 347, N-(2-(1-Methyl-1H-1,2,3-triazol-4-yl)-1,6-naphthyridin-7-yl)-1-((1-(trifluoromethyl)cyclopropyl)methyl)piperidine-4-carboxamide] | > 10 | 4 | 28.7 | – | – | – | – | – | – | – | 20.7 | 10.7
0.067 | > 10 | > 10 | 0.255 | > 10 | CNC(=O)c1ccc(C(=O)Nc2cc3nc(-c4cn(C)nn4)ccc3cn2)cn1 [Compound 372, N^2-Methyl-N^5-(2-(1-methyl-1H-1,2,3-triazol-4-yl)-1,6-naphthyridin-7-yl) pyridine-2,5-dicarboxamide] | 3.64 | 0 | 48.7 | – | – | – | – | – | – | – | – | 23.2
0.121 | 3.66 | 1.35 | 0.036 | 2.37 | Cn1cncc1-c1ccc2cnc(NC(=O)C3CCC(F)(F)CC3)cc2n1 [Compound 400, 4,4-Difluoro-N-(2-(1-methyl-1H-imidazol-5-yl)-1,6-naphthyridin-7-yl) cyclohexane-1-carboxamide] | 1.48 | – | – | – | – | – | – | – | – | – | – | –
> 10 | 5.13 | > 10 | > 10 | > 10 | Cn1cncc1-c1ccc2cnc(NC(=O)c3ccc(F)cc3)cc2n1 [Compound 448, 4-Fluoro-N-(2-(1-methyl-1H-imidazol-5-yl)-1,6-naphthyridin-7-yl)benzamide] | > 10 | – | 2.8 | – | – | – | – | – | – | – | 23 | 16.2
> 10 | > 10 | 6.06 | > 10 | 3.25 | CN1CCC(Oc2cccc(C(=O)Nc3cc4nc(-c5cnco5)ccc4cn3)c2)CC1 [Compound 591, 3-((1-Methylpiperidin-4-yl)oxy)-N-(2-(oxazol-5-yl)-1,6-naphthyridin-7-yl)benzamide] | > 10 | 0 | – | – | – | – | – | – | – | – | 13.3 | –
> 10 | > 10 | > 10 | > 10 | > 10 | Cc1ncc(-c2ccc3cnc(NC(=O)N4CCC(N(C)C)CC4)cc3n2)s1 [Compound 662, 4-(Dimethylamino)-N-(2-(2-methylthiazol-5-yl)-1,6-naphthyridin-7-yl) piperidine-1-carboxamide] | 7.65 | 10.5 | 26 | – | – | – | – | – | – | – | – | 17.3
1.01 | 6.73 | > 10 | > 10 | > 10 | CN1CCC(C(=O)Nc2cc3nc(-c4cnsc4)ccc3cn2)CC1 [Compound 692, N-(2-(Isothiazol-4-yl)-1,6-naphthyridin-7-yl)-1-methylpiperidine-4-carboxamide] | > 10 | – | 38.6 | – | – | – | – | – | – | – | 3.8 | 28.7
0.203 | > 10 | 3.97 | > 10 | 4.38 | CC(C)Nc1cncc(-c2ccc3cnc(NC(=O)c4cn(C5CCNCC5)nn4)cc3n2)n1 [Compound 862, N-(2-(6-(isopropylamino)pyrazin-2-yl)-1,6-naphthyridin-7-yl)-1-(piperidin-4-yl)-1H-1,2,3-triazole-4-carboxamide] | 5.03 | 5.6 | – | – | – | – | – | – | – | – | – | –
0.388 | > 10 | > 10 | > 10 | > 10 | CC(C)Nc1cncc(-c2ccc3cnc(NC(=O)c4cn(C5CCN(CCF)CC5)nn4)cc3n2)n1 [Compound 863, 1-(1-(2-fluoroethyl)piperidin-4-yl)-N-(2-(6-(isopropylamino)pyrazin-2-yl)-1,6-naphthyridin-7-yl)-1H-1,2,3-triazole-4-carboxamide] | > 10 | 7 | 29.7 | – | – | – | – | – | – | – | 41 | 27.5
0.142 | > 10 | 4.28 | > 10 | 2.06 | O=C(Nc1cc2nc(-c3cncc(OCC4CNC4)n3)ccc2cn1)c1ccc(F)cc1 [Compound 892, N-(2-(6-(Azetidin-3-ylmethoxy)pyrazin-2-yl)-1,6-naphthyridin-7-yl)-4-fluorobenzamide] | 3.98 | 2.5 | – | – | – | – | – | – | – | – | – | –
> 10 | > 10 | > 10 | > 10 | > 10 | Cn1cc(-c2ccc3cnc(NC(=O)[C@H]4CCCN4)nc3c2)cn1 [Compound 969, (R)—N-(7-(1-Methyl-1H-pyrazol-4-yl)quinazolin-2-yl)pyrrolidine-2-carboxamide] | > 10 | 4.1 | 4.2 | – | – | – | – | – | – | – | 40.2 | 16.3
0.171 | > 10 | > 10 | 0.087 | > 10 | CC(C(=O)Nc1ncc2ccc(-c3cnn(C)c3)cc2n1)N1CCCCC1 (stereo not drawn) [Compound 978, N-(7-(1-Methyl-1H-pyrazol-4-yl)quinazolin-2-yl)-2-(piperidin-1-yl)propanamide] | 2.73 | 6.9 | 37.2 | – | – | – | – | – | – | – | – | 50
> 10 | > 10 | > 10 | > 10 | > 10 | Cn1cc(-c2ccc3cnc(NC(=O)C4CCN(S(C)(=O)=O)CC4)nc3c2)cn1 [Compound 979, N-(7-(1-methyl-1H-pyrazol-4-yl)quinazolin-2-yl)-1-(methylsulfonyl)piperidine-4-carboxamide] | > 10 | 6.4 | 20.3 | – | – | – | – | – | – | – | 23.2 | 16.7
0.075 | > 10 | > 10 | 0.532 | > 10 | CN1CCCN(CC(=O)Nc2ncc3ccc(-c4cnn(C)c4)cc3n2)CC1 [Compound 1013, 2-(4-Methyl-1,4-diazepan-1-yl)-N-(7-(1-methyl-1H-pyrazol-4-yl)quinazolin-2-yl)acetamide] | > 10 | 3.1 | 0 | – | – | – | – | – | – | – | 12.4 | 10.5
0.045 | > 10 | 2.91 | 0.238 | > 10 | CC(C)CN1CCC(CC(=O)Nc2ncc3ccc(-c4cnn(C)c4)cc3n2)C1 (stereo not drawn) [Compound 1029, 2-(1-Isobutylpyrrolidin-3-yl)-N-(7-(1-methyl-1H-pyrazol-4-yl)quinazolin-2-yl)acetamide] | > 10 | 3.2 | – | – | – | – | – | – | – | – | 28 | 38.5
